{
  "source": "PubChem BioAssay AID1996",
  "data": [
    {"conditions": "buffer; pH 7.4; 200.0 µM", "units": {"solubility kinetic": "µg/mL"}, "values": [
      {"smiles": "O=[N+]([O-])c1cccc(-c2ncc3ccccn23)c1", "solubility kinetic": 19.1},
      {"smiles": "Cc1ccccc1OCC(=O)OCC(=O)c1ccc[nH]1", "solubility kinetic": "> 41"},
      {"smiles": "CC(C)c1ccc(C(=O)NCCCNC(=O)c2cnccn2)cc1", "solubility kinetic": "> 49"},
      {"smiles": "COc1cc(C)c(S(=O)(=O)NOCc2ccc([N+](=O)[O-])cc2)c(C)c1C", "solubility kinetic": "< 0.4"},
      {"smiles": "CCc1cccc(NC(=O)C(NC(=O)C2CCCCC2)C(C)C)c1", "note": "(stereo not given)", "solubility kinetic": 0.6},
      {"smiles": "c1ccc(Sc2ccccn2)cc1", "solubility kinetic": "> 28.1"},
      {"smiles": "CCCCN(C(=O)Nc1ccccc1)C1CCS(=O)(=O)C1", "note": "(stereo not given)", "solubility kinetic": "> 46.6"},
      {"smiles": "O=C(O)C1CCCN1S(=O)(=O)c1ccc(Cl)cc1", "note": "(stereo not given)", "solubility kinetic": "> 43.5"},
      {"smiles": "Cc1cc(C)n2nc(SCC(=O)N3CCCC3)nc2n1", "solubility kinetic": "> 43.7"},
      {"smiles": "COc1ccccc1OCCNC(=O)C(c1ccccc1)c1ccccc1", "solubility kinetic": 2.2},
      {"smiles": "c1cnc2c(c1)ccc1ncccc12", "solubility kinetic": "> 27"},
      {"smiles": "Cc1[nH]c2ccccc2c1C(=O)COC(=O)c1ccccc1O", "solubility kinetic": 4.6},
      {"smiles": "Nc1ncc2c(n1)-c1ccoc1CC2", "solubility kinetic": "> 28.1"},
      {"smiles": "Cc1nc(NC(=O)COC(=O)C2CC2C)c(Cl)cc1Cl", "note": "(stereo not given)", "solubility kinetic": "> 47.6"},
      {"smiles": "Brc1cccc(CNCC2CCCO2)c1", "note": "(stereo not given)", "solubility kinetic": "> 40.5"},
      {"smiles": "NC(=O)COc1ccc2oc(=O)cc(-c3cc4ccccc4o3)c2c1", "solubility kinetic": 1},
      {"smiles": "CC(=O)Nc1ccc(CCc2nc3ccccc3[nH]2)cc1", "solubility kinetic": "> 41.9"},
      {"smiles": "CC(C)NC(=O)[C@H]1N2C(=O)c3ccccc3C2SC1(C)C", "note": "(stereo not given in full)", "solubility kinetic": "> 45.7"},
      {"smiles": "COc1ccc(/C=N/NC(=O)c2ccncc2)c(C(=O)O)c1OC", "solubility kinetic": "> 49.4"},
      {"smiles": "Fc1ccccc1N1CCN(CCCc2ccccc2)CC1", "solubility kinetic": 19.6},
      {"smiles": "O=C(Nc1nc(-c2ccc(F)c(F)c2)cs1)c1cnccn1", "solubility kinetic": 0.8},
      {"smiles": "COc1ccc(NC(=O)c2ccc3ccccc3c2)cc1", "solubility kinetic": "< 0.6"},
      {"smiles": "COCCCC/C(=N\\OCCN)c1ccc(C(F)(F)F)cc1.O=C(O)/C=C\\C(=O)O", "solubility kinetic": "> 65.2"},
      {"smiles": "NC(N)=Nc1nc(-c2ccccc2)c2cc(F)ccc2n1", "solubility kinetic": "> 42.2"},
      {"smiles": "CCN(CC)CC(=O)N1c2ccccc2Sc2ccccc21", "solubility kinetic": "> 46.9"},
      {"smiles": "Cc1cc(C)c(C#N)c(N2CCN(c3ccccc3)CC2)n1", "solubility kinetic": 3.8},
      {"smiles": "COc1ccc(-c2nc(CCl)cs2)cc1OC.Cl", "solubility kinetic": 41.8},
      {"smiles": "O=C(c1ccccc1F)n1c2c(c3ccccc31)CCCC2", "solubility kinetic": 0.8},
      {"smiles": "COc1ccc(CCC(=O)OCC(=O)Nc2sccc2C#N)cc1", "solubility kinetic": 22.9},
      {"smiles": "N#CC1=C(N)OC2=C(C(=O)CCC2)C1c1cc2c(cc1Cl)OCO2", "note": "(stereo not given)", "solubility kinetic": 17},
      {"smiles": "COc1ccc(-c2noc(CCC(=O)NCC3CCCO3)n2)cc1", "note": "(stereo not given)", "solubility kinetic": "> 49.7"},
      {"smiles": "O=C(O/N=C1\\CCS(=O)(=O)c2sccc21)C1CC1", "solubility kinetic": "> 42.8"},
      {"smiles": "NS(=O)(=O)c1ccc(CCNC(=O)c2ccc(=O)[nH]c2)cc1", "solubility kinetic": "> 48.2"},
      {"smiles": "Cc1ccc(C(=O)NC(=S)Nc2ccc3[nH]c(=O)[nH]c3c2)c(C)c1", "solubility kinetic": "< 0.2"},
      {"smiles": "COc1cc2c(cc1OC)C(NC(=O)c1ccc(C)cc1)CC2=O", "note": "(stereo not given)", "solubility kinetic": 4.6},
      {"smiles": "Cc1nc2ccccc2n1CC(=O)c1ccccc1", "solubility kinetic": 37},
      {"smiles": "COc1ccc(S(=O)(=O)n2cccc2)cc1OC", "solubility kinetic": 11.8},
      {"smiles": "O=C(COC(=O)CNC(=O)c1cc(Cl)cc([N+](=O)[O-])c1)NC(=O)NCc1ccco1", "solubility kinetic": 61.7},
      {"smiles": "Cn1cnc(S(=O)(=O)Nc2ccccc2C(=O)NCC2CC2)c1", "solubility kinetic": "> 50.2"},
      {"smiles": "COc1ccc(-c2noc(=O)n2Cc2ccc(C#N)cc2)cc1", "solubility kinetic": "> 46.1"},
      {"smiles": "CC(C)[C@H](NC(=O)c1ccc(Cl)c([N+](=O)[O-])c1)C(=O)O", "solubility kinetic": "> 45.1"},
      {"smiles": "C=CCON/C(CCC)=C1\\C(=O)C(C(=O)OC)C(C)(C)CC1=NC", "note": "(stereo not given)", "solubility kinetic": 40.4},
      {"smiles": "CCc1ccccc1NC(=S)N(CCOC)C(C)c1ccco1", "note": "(stereo not given)", "solubility kinetic": 35.1},
      {"smiles": "O=c1[nH]c2ccccc2nc1-c1ccc(Cl)cc1", "solubility kinetic": "< 0.3"},
      {"smiles": "CC(=O)N/C(=C\\c1ccc(F)cc1)C(=O)OCc1ccccc1", "solubility kinetic": "> 47"},
      {"smiles": "O=[N+]([O-])c1ccc(Cl)c2cccnc12", "solubility kinetic": 24.6},
      {"smiles": "COC(=O)CC1=NN(c2nc3ccccc3s2)C(=O)/C1=C/N(C)C", "solubility kinetic": "> 51.7"},
      {"smiles": "O=C(NCCCN1CCCC1=O)Nc1ccccc1Cl", "solubility kinetic": "> 44.4"},
      {"smiles": "Clc1ccc(-c2nc(-c3ccncc3)no2)c(Cl)c1", "solubility kinetic": "< 0.2"},
      {"smiles": "O=S(=O)(Nc1ccc(F)cc1)N1CCOCC1", "solubility kinetic": "> 39"},
      {"smiles": "CCOc1ccccc1CNC(=O)CNC(=O)c1cccs1", "solubility kinetic": "> 47.8"},
      {"smiles": "COc1cccc(C2Nc3cccc4cccc(c34)N2)c1", "solubility kinetic": 11.5},
      {"smiles": "Cc1ccc(S(=O)(=O)CCC(=O)OCc2nnc(-c3ccccc3)o2)cc1", "solubility kinetic": "> 58"},
      {"smiles": "COc1ccccc1NC(=O)COC(=O)C1C2CC3OC(=O)C1C3C2", "note": "(stereo not given)", "solubility kinetic": "> 51.8"},
      {"smiles": "CCCCCCC(=O)OCC(=O)c1ccc2c(c1)NC(=O)CO2", "solubility kinetic": 10.8},
      {"smiles": "c1ccc(CCOn2ccnc2)cc1", "solubility kinetic": "> 28.2"},
      {"smiles": "Clc1cccc(C2NCc3ccccc3-n3cccc32)c1", "note": "(stereo not given)", "solubility kinetic": 3.5},
      {"smiles": "Nc1cc(S(=O)(=O)c2ccc(O)c(N)c2)ccc1O", "solubility kinetic": "> 42"},
      {"smiles": "S=c1[nH]nc(CSCCOc2ccc(Cl)cc2Cl)o1", "solubility kinetic": "> 50.6"},
      {"smiles": "Cc1cc(NC(=O)CN(C)S(=O)(=O)c2cccc(Cl)c2)no1", "solubility kinetic": 10.5}
    ]}
  ]
}
